38 compounds from patent US20220047545A1 (priority 2020, published 2022) can be followed below.

This assay concerns the target RBD of SARS-CoV-2 spike protein binding to hACE2 receptor (Severe acute respiratory syndrome coronavirus 2, UniProt P0DTC2).
`O=C1O[C@H]2[C@@H]3OC(=O)c4cc(O)c(O)c(O)c4-c4c(O)c(O)c5oc(=O)c6c(c(O)c(O)c7oc(=O)c4c5c76)-c4c(cc(O)c(O)c4O)C(=O)OC[C@H]3OC(O)[C@@H]2OC(=O)c2cc(O)c(O)c(O)c2-c2c1cc(O)c(O)c2O` (mixture of isomers) [Punicalagin]: the “Binding with RBD (% of control ± SD)” value is reported as 32.3 ± 5.9 % of control.

On to `O=C1C[C@@H](c2ccc(O)cc2)Oc2cc(O)cc(O)c21` [Naringenin], for which the “Binding with RBD (% of control ± SD)” value is on record as 20 ± 5.1 % of control.

In the case of `O=c1oc2cc(O)ccc2c2ccc(O)cc12` [Urolithin A], the “Binding with RBD (% of control ± SD)” value is reported as 31.1 ± 4.6 % of control.

On to `O=c1c(O)c(-c2ccc(O)cc2O)oc2cc(O)cc(O)c12` [Morin], for which the “Binding with RBD (% of control ± SD)” value was 30.5 ± 5.8 % of control.

For the compound `C[C@@H]1O[C@@H](OC[C@H]2O[C@@H](Oc3c(-c4ccc(O)c(O)c4)oc4cc(O)cc(O)c4c3=O)[C@H](O)[C@@H](O)[C@@H]2O)[C@H](O)[C@H](O)[C@H]1O` [Rutin], the “Binding with RBD (% of control ± SD)” value is given as 20.6 ± 6.3 % of control.

For the compound `Oc1ccc(/C=C/c2cc(O)cc(O)c2)cc1` [Trans-resveratrol], the “Binding with RBD (% of control ± SD)” value is listed as 22.3 ± 2.9 % of control.

Regarding `O=C(O)CC(O)C(=O)O` (centres unmarked) [Malic acid], the “Binding with RBD (% of control ± SD)” value was 1.2 ± 3.7 % of control.

On to `O=C(O)[C@H]1O[C@@H](Oc2cc3oc(-c4ccccc4)cc(=O)c3c(O)c2O)[C@H](O)[C@@H](O)[C@@H]1O` [Baicalin], for which the “Binding with RBD (% of control ± SD)” value is on record as 10.3 ± 2.9 % of control and the “enhancement of blocking the RBD binding by Formula 1 when micronutrient tested individually” value (“enhancement of blocking the RBD binding” for short) was “only minimal enhancement”.

For the compound `O[C@H]1[C@H](O)[C@@H](O)CN2CC[C@H](O)[C@H]12` [Castanospermine], the “Binding with RBD (% of control ± SD)” value was 8.2 ± 2.3 % of control.

Take `O=c1c(O)c(-c2cc(O)c(O)c(O)c2)oc2cc(O)cc(O)c12` [Myricetin]: the “Binding with RBD (% of control ± SD)” value was 45.5 ± 5.4 % of control.

Regarding `CC(=O)c1c(O)c(C)c(O)c2c1OC1=CC(=O)C(C(C)=O)C(=O)C12C` (centres unmarked) [Usnic acid], the “Binding with RBD (% of control ± SD)” value is on record as 22.0 ± 3.4 % of control.

For the compound `O=c1c(O)c(-c2ccc(O)cc2)oc2cc(O)cc(O)c12` [Kaemferol], the “Binding with RBD (% of control ± SD)” value is on record as 15.6 ± 2.9 % of control.

Take `COc1ccc([C@@H]2CC(=O)c3c(O)cc(O[C@@H]4O[C@H](CO[C@@H]5O[C@@H](C)[C@H](O)[C@@H](O)[C@H]5O)[C@@H](O)[C@H](O)[C@H]4O)cc3O2)cc1O` [Hesperidin]: the “Binding with RBD (% of control ± SD)” value is 90.3 ± 3.8 % of control and the “enhancement of blocking the RBD binding” value is recorded as “only minimal enhancement”.

For the compound `CC(C)c1cc2c(c(O)c1O)[C@@]1(C(=O)O)CCCC(C)(C)[C@@H]1CC2` [Carnosic acid], the “Binding with RBD (% of control ± SD)” value is 27.1 ± 5.1 % of control.

In the case of `COc1c(O)cc2oc(-c3ccc(O)cc3)cc(=O)c2c1O` [Hispidulin], the “Binding with RBD (% of control ± SD)” value was 20.1 ± 6.0 % of control.

Consider (−)-gallocatechin gallate, for which the “Binding with RBD (% of control ± SD)” value is listed as 75.4 ± 5.6 % of control.

Turning to `O=C(O)c1cc(O)c(O)c(O)c1` [Gallic acid], the “Binding with RBD (% of control ± SD)” value is reported as 18.3 ± 4.5 % of control.

For `Oc1cc(O)c2c(c1)O[C@@H](c1cc(O)c(O)c(O)c1)[C@H](O)C2` [(−)-gallocatechin], the “Binding with RBD (% of control ± SD)” value was 73.5 ± 6.7 % of control.

`COc1ccc2cc3[n+](cc2c1OC)CCc1cc2c(cc1-3)OCO2` [Berberine]: the “Binding with RBD (% of control ± SD)” value is 17.3 ± 2.7 % of control.

In the case of `Oc1cc(O)c2c(c1)O[C@H](c1ccc(O)c(O)c1)[C@H](O)[C@H]2c1c(O)cc(O)c2c1O[C@H](c1ccc(O)c(O)c1)[C@H](O)C2` [Procyanidin B2], the “Binding with RBD (% of control ± SD)” value is on record as 31.1 ± 3.6 % of control.

With `Oc1cc(O)c2c(c1)O[C@H](c1cc(O)c(O)c(O)c1)[C@@H](O)C2` [(+)-gallocatechin], the “Binding with RBD (% of control ± SD)” value is recorded as 69.5 ± 2.8 % of control.

With `O=C(O[C@@H]1Cc2c(O)cc(O)cc2O[C@H]1c1ccc(O)c(O)c1)c1cc(O)c(O)c(O)c1` [(−)-catechin gallate], the “Binding with RBD (% of control ± SD)” value was 37.4 ± 4.7 % of control.

In the case of `COc1cc2c(cc1OC)-c1cc3ccc(OC)c(OC)c3c[n+]1CC2` [Palmatine], the “Binding with RBD (% of control ± SD)” value was 40.4 ± 6.1 % of control.

For `O=c1cc(-c2ccccc2)oc2cc(O)c(O)c(O)c12` [Baicalein], the “Binding with RBD (% of control ± SD)” value is 22.5 ± 5.1 % of control.

For the compound `O=C(OC[C@H]1O[C@@H](OC(=O)c2cc(O)c(O)c(OC(=O)c3cc(O)c(O)c(O)c3)c2)[C@H](OC(=O)c2cc(O)c(O)c(OC(=O)c3cc(O)c(O)c(O)c3)c2)[C@@H](OC(=O)c2cc(O)c(O)c(OC(=O)c3cc(O)c(O)c(O)c3)c2)[C@@H]1OC(=O)c1cc(O)c(O)c(OC(=O)c2cc(O)c(O)c(O)c2)c1)c1cc(O)c(O)c(OC(=O)c2cc(O)c(O)c(O)c2)c1` [Tannic acid], the “Binding with RBD (% of control ± SD)” value was 79.4 ± 2.3 % of control.

Regarding `O=c1cc(-c2ccc(O)c(O)c2)oc2cc(O)cc(O)c12` [Luteolin], the “Binding with RBD (% of control ± SD)” value was 10.4 ± 4.7 % of control and the “enhancement of blocking the RBD binding” value is listed as “only minimal enhancement”.

Take `O=c1c(-c2ccc(O)cc2)coc2cc(O)cc(O)c12` [Genistein]: the “Binding with RBD (% of control ± SD)” value is on record as 22.1 ± 2.8 % of control.

`Oc1cc(O)cc(O)c1` [Phloroglucinol]: the “Binding with RBD (% of control ± SD)” value is 69.5 ± 3.6 % of control.

`O=c1c(O)c(-c2ccc(O)c(O)c2)oc2cc(O)ccc12` [Fisetin]: the “Binding with RBD (% of control ± SD)” value was 22.4 ± 1.9 % of control.

In the case of `O=c1cc(-c2ccc(O)cc2)oc2cc(O)cc(O)c12` [Apigenin], the “Binding with RBD (% of control ± SD)” value is 17.1 ± 4.1 % of control.

For the compound `C=C(C)[C@H]1CC=C(C)CC1` [D-limonene], the “Binding with RBD (% of control ± SD)” value is 27.2 ± 6.4 % of control.

As to `C[C@@H]1O[C@@H](O[C@H]2[C@H](Oc3cc(O)c4c(c3)O[C@H](c3ccc(O)cc3)CC4=O)O[C@H](CO)[C@@H](O)[C@@H]2O)[C@H](O)[C@H](O)[C@H]1O` [Naringin], the “Binding with RBD (% of control ± SD)” value is 23.6 ± 6.4 % of control.

Turning to `O=C(/C=C/c1ccc(O)c(O)c1)O[C@H](Cc1ccc(O)c(O)c1)C(=O)O` [Rosmarinic acid], the “Binding with RBD (% of control ± SD)” value is 22.5 ± 3.8 % of control.

On to `C=C1CC[C@@H]2[C@](C)(CO)[C@H](O)CC[C@@]2(C)[C@@H]1C/C=C1/C(=O)OC[C@H]1O` [Andrographolide], for which the “Binding with RBD (% of control ± SD)” value was 22.1 ± 2.5 % of control.

In the case of `COc1ccc(Cc2nccc3cc(OC)c(OC)cc23)cc1OC` [Papaverine, reference compound], the “Binding with RBD (% of control ± SD)” value is on record as 1.6 ± 0.2 % of control.

In the case of `O=C(O)[C@H]1O[C@@H](Oc2cc3oc(-c4ccc(O)cc4)cc(=O)c3c(O)c2O)[C@H](O)[C@@H](O)[C@@H]1O` [Scutellarin], the “Binding with RBD (% of control ± SD)” value is recorded as 8.1 ± 3.7 % of control.

For `Oc1cc(O)c2c(c1)O[C@H](c1ccc(O)c(O)c1)[C@@H](O)[C@@H]2c1c(O)cc(O)c2c1O[C@H](c1ccc(O)c(O)c1)[C@@H](O)C2` [Procyanidin B3], the “Binding with RBD (% of control ± SD)” value is listed as 32.3 ± 3.7 % of control.

In the case of `O=c1c(O)c(-c2ccc(O)c(O)c2)oc2cc(O)cc(O)c12` [Quercetin], the “Binding with RBD (% of control ± SD)” value is 22.4 ± 6.5 % of control.
